“And” between values parts separate entries of the source, which are not always exact repeats. Equal entries are not always repeated. Starred links: 1 amine or outer side, 2 acyl side, 3 side chain; linkers in the order of their positions; H or OH if unused. Positions of bridges follow the written chain, without caps; N, C: chain ends. Non-standard residues stand in square brackets, D forms with d. Residues, ends and D or L forms follow the SMILES beside them. Chains are numbered I, II in the order given. X1 = NC(=O)[C@H](CCCCNC(=O)COCCOCCN[*:1])N[*:2]; 2Nal = N[C@@H](Cc1ccc2ccccc2c1)C(=O)O; CH2CH2 = C(C[*:2])[*:1]

In assay [1] the target is T1, Kelch-like ECH-associated protein 1 (Homo sapiens, UniProt Q14145). In words: Binding affinity to human KEAP1 by fluorescence anisotropy assay. (In general: Fluorescence polarisation rises when a labelled molecule tumbles more slowly, as on binding a larger partner.)
Assay [2] deals with T1, Kelch-like ECH-associated protein 1.
The target is the same in assay [3]. In words: Binding affinity to human KEAP1 by fluorescence polarization assay.
Assay [4] shares this target. Description: Binding affinity to human KEAP1 Kelch domain by SPR direct binding assay.
Assay [5] addresses T2, Keap1/Nrf2 (Homo sapiens, UniProt Q14145).
For assay [6], the target named is T2, Keap1/Nrf2. In words: Inhibition of human Keap1-Nrf2 protein-protein interaction expressed in U2OS cells incubated for 6 hrs by cellular Keap1-Nrf2 functional assay. It is filed as cell-based.
The target of assay [7] is T2, Keap1/Nrf2. In words: Inhibition of human Keap1-Nrf2 protein-protein interaction by ELISA method. It is filed as protein assay. (An ELISA detects its analyte on a solid surface through an enzyme-linked reagent.)
In assay [8] the target is T1, Kelch-like ECH-associated protein 1. Description: Binding affinity to human KEAP1 incubated for 1 hr by absorbance based analysis.
The target is the same in assay [9]. The source holds these as a separate data set.
Assay [10] deals with T2, Keap1/Nrf2. The source holds these as a separate data set.
Assay [11] concerns the target T1, Kelch-like ECH-associated protein 1. In words: Binding affinity to human KEAP1 Kelch domain (residues Ala321-Thr609) expressed in Escherichia coli BL21(DE3) cells assessed as dissociation constant by isothermal titration calorimetric analysis. (Isothermal titration calorimetry measures the heat released or taken up as one component is titrated into another.)
Assay [12] shares this target. In words: Binding affinity to human KEAP1 Kelch domain (residues Ala321-Thr609) expressed in Escherichia coli BL21(DE3) cells assessed as dissociation constant by SPR direct binding assay.

T1 sequence (Q14145 whole entry): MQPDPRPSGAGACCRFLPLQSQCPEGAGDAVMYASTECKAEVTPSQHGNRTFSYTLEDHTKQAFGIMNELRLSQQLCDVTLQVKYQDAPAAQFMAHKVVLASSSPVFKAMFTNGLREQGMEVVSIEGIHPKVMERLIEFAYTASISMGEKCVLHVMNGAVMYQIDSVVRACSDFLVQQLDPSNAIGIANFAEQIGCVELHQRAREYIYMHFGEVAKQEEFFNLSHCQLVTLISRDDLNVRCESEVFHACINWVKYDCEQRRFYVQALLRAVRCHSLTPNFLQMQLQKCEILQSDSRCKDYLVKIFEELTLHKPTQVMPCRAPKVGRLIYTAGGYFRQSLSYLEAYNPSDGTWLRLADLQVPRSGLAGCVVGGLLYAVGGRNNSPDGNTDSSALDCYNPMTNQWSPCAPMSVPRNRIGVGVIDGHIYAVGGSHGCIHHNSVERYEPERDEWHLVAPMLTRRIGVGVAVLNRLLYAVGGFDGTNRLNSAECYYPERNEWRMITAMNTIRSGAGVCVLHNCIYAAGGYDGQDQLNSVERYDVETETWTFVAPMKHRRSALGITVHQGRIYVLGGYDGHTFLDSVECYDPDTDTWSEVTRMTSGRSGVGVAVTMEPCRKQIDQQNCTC
T2 sequence (Q16236 whole entry): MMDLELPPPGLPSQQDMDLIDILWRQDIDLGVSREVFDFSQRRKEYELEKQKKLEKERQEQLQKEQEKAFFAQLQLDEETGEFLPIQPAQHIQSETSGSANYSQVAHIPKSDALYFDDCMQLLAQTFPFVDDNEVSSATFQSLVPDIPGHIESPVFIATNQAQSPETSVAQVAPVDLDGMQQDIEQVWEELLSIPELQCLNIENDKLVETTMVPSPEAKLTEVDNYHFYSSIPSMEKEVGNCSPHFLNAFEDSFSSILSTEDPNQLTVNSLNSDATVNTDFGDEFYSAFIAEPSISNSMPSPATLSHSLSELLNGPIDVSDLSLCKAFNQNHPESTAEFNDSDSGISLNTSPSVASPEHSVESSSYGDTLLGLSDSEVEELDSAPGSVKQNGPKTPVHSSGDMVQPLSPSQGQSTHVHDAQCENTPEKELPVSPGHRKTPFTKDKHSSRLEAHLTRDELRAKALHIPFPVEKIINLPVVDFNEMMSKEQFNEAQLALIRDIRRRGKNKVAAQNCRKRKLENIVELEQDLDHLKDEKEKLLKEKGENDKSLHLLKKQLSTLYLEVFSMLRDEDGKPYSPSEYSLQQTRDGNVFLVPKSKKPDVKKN
T2 sequence (Q14145 whole entry): as the sequence (Q14145 whole entry) above

Usually Kd stands for the equilibrium constant for the complex coming apart. With `CCc1ccc(S(=O)(=O)N(CC(=O)O)c2cc(Sc3nc[nH]n3)c(O)c3ccccc23)cc1`, the equilibrium dissociation constant (Kd) in assay [1] was 1140 nM; in assay [2], 453 nM.
For the compound `CC[C@H](C)[C@@H]1NC(=O)[C@H](CC(=O)O)NC(=O)[C@H](CCC(N)=O)NC(=O)[C@H](CCCNC(=N)N)NC(=O)[C@H](Cc2c[nH]c3ccccc23)NC(=O)[C@H](CC(C)C)NC(=O)[C@H]([C@@H](C)CC)NC(=O)[C@H](CC(=O)O)NC(=O)[C@@H](NC(=O)[C@H](CC(C)C)NC(=O)[C@H](CC(=O)O)NC(=O)[C@@H](N)CCSC)CSSC[C@@H](C(=O)N[C@@H](Cc2ccccc2)C(=O)N[C@@H](CO)C(=O)O)NC(=O)[C@H](Cc2ccccc2)NC(=O)[C@H](C(C)C)NC(=O)[C@H](CCC(=O)O)NC(=O)[C@H](CCCNC(=N)N)NC(=O)[C@H](CO)NC(=O)[C@H](C(C)C)NC(=O)CNC(=O)[C@H](CC(C)C)NC(=O)[C@H](CC(=O)O)NC1=O` (H-MDLCDILWRQDIDLGVSREVFCFS-OH; disulfide 4-22), the dissociation constant (Kd) in assay [3] worked out at 51 nM.
On to `O=c1c2ccccc2nc2c3[nH]c4ccccc4c3ccn12`, for which binding in assay [4] was put at a Kd of 19600 nM.
By IC50 is commonly meant the concentration that gives 50% inhibition. A lower IC50 goes with inhibition by little substance. In turn, `CCCCC1CCCN1C(=O)c1cccc(-c2cccc(-n3ncc(C(=O)O)c3C3CC3)c2)c1` (stereo not drawn) gave an IC50 in [5] of 63 nM.
By EC50 is commonly meant the concentration giving half of the maximal effect. A low value points to an effect from little substance. On to `CC1=NN(c2ccccc2)C(=O)/C1=C/c1ccc(OS(=O)(=O)c2ccccc2[N+](=O)[O-])cc1`, for which, in assay [6], the EC50 was 1460 nM.
`CC(=O)N1CCN(c2ccc(OCC3COC(Cn4ccnc4)(c4ccc(Cl)cc4Cl)O3)cc2)CC1` (stereo not drawn) [KETOCONAZOLE] displayed a half-inhibitory concentration (IC50) in assay [7] of 1670 nM.
Consider `COC1=C(NCC(=O)O)CC(O)(CO)C/C1=N\C(CO)C(=O)O` (stereo not drawn), for which, in assay [5], the IC50 was 100000 nM and 185000 nM.
`N[C@@H](CC(=O)O)C(=O)N[C@@H](CC(=O)O)C(=O)N[C@@H](Cc1c[nH]c2ccccc12)C(=O)O` (H-Asp-Asp-Trp-OH) returned a Kd in assay [3] of 100 nM.
Consider `C[C@H](Oc1cccc(-c2cccc(-n3ncc(C(=O)O)c3[C@@H]3C[C@H]3c3cn(C)nn3)c2)c1)C1CCCCC1`, for which 10 nM corresponded to half-maximal inhibition in assay [5] (IC50).
In [5], `CC(C)C[C@@H]1NC(=O)[C@H](Cc2ccccc2)NC(=O)[C@H](CCC(=O)O)NC(=O)CNC(=O)[C@H]([C@@H](C)O)NC(=O)[C@H](CCC(=O)O)NC(=O)[C@@H]2CCCN2C(=O)[C@H](CC(=O)O)NC(=O)[C@H](CC(C)C)NC(=O)[C@H](CCC(=O)NCCOCCOCC(=O)NCCCC[C@H](NC(=O)CC[C@@H]2NC(=O)[C@H](CCCNC(=N)N)NC(=O)[C@H](CCCNC(=N)N)NC(=O)[C@H](CCCNC(=N)N)NC(=O)[C@H](CCCNC(=N)N)NC(=O)[C@H](Cc3ccc4ccccc4c3)NC(=O)[C@H](Cc3ccccc3)NC2=O)C(N)=O)NC(=O)CNC1=O` (I: cyclo(DPETGEFLGEL) / II: cyclo([2Nal]RRRREF); linker I:10-II:6 via X1) yielded an IC50 of 153 nM. In [3], this compound had a Kd of 48 nM.
As for `NCCCC[C@H](NC(=O)[C@H](CCCCN)NC(=O)[C@@H](N)CC(=O)O)C(=O)O` (H-Asp-Lys-Lys-OH), in assay [3], the Kd stood at 120 nM.
Turning to `CC[C@H](C)[C@@H]1NC(=O)[C@H](CC(=O)O)NC(=O)[C@@H](N)Cc2ccc(cc2)OCCSC[C@@H](C(=O)O)NC(=O)[C@H](CCC(=O)O)NC(=O)CNC(=O)[C@H]([C@@H](C)O)NC(=O)[C@H](CCC(=O)O)NC1=O` (H-YDIETGEC-OH; linker 1-8 via CH2CH2), binding in assay [8] was characterised by a dissociation constant (Kd) of 43 nM.
For `C[C@@H]1NC(=O)[C@H](CC(=O)O)NC(=O)[C@@H](N)Cc2ccc(cc2)OCCSC[C@@H](C(=O)O)NC(=O)[C@H](CCC(=O)O)NC(=O)CNC(=O)[C@H]([C@@H](C)O)NC(=O)[C@H](CCC(=O)O)NC1=O` (H-YDAETGEC-OH; linker 1-8 via CH2CH2), binding in assay [8] was put at a Kd of 40 nM.
The compound `COc1ccc(S(=O)(=O)N(Cc2nnn[nH]2)c2ccc(N(Cc3nnn[nH]3)S(=O)(=O)c3ccc(OC)cc3)c3ccccc23)cc1` yielded a Kd in assay [9] of 39.8 nM. Further, the concentration for half-maximal inhibition (IC50) in assay [5] worked out at 14.4 nM; in assay [10], 15.8 nM.
For `O=C(O)c1ccc(NC2=C/C(=N/S(=O)(=O)c3ccc4ccccc4c3)c3ccccc3C2=O)cc1`, the IC50 in assay [5] came to 2700 nM. In assay [2], this compound came in with an equilibrium dissociation constant (Kd) of 158 nM.
`COC1=C(NCC(=O)O)CC(O)(CO)C/C1=N\C(C(=O)O)C(C)O` (stereo not drawn): the IC50 in assay [5] is 100000 nM and 185000 nM.
Turning to `N[C@@H](CCC(=O)O)C(=O)N[C@@H](Cc1c[nH]c2ccccc12)C(=O)N[C@@H](Cc1c[nH]c2ccccc12)C(=O)N[C@@H](Cc1c[nH]c2ccccc12)C(=O)O` (H-EWWW-OH), the Kd in assay [11] turned out to be 10000 nM; in [12], 77000 nM.
